Patent US10351547B2, “Somatostatin modulators and uses thereof” (priority 2016, dated 2019)

Molecular target: human SSTR2 (Homo sapiens (Human), UniProt P30874)
Assay: Human SSTR2 intracellular cAMP functional assay for agonists (HTRF)
Assay type: cell-based
Conditions: not given
Method in brief: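 Cells bearing human SSTR2 exposed to compound for 20 minutes at 37 °C; after lysis, cAMP measured by time-resolved fluorescence (HTRF) and converted via a standard curve. EC50 calculated from cAMP versus compound concentration.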

human SSTR2, sequence (P30874 whole entry): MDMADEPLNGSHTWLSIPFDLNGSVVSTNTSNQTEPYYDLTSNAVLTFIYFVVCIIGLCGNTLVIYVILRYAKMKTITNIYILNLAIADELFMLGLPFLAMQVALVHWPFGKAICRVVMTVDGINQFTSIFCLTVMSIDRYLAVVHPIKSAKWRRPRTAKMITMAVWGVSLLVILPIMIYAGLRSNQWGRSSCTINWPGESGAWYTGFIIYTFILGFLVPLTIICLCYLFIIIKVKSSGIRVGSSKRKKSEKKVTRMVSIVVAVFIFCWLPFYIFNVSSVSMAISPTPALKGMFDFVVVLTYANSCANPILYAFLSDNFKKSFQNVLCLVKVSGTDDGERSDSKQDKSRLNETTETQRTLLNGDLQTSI

| Compound | EC50 [nM] |
| --- | --- |
| Cc1cc(F)cc(-c2cnc3ccc(-c4cccc(C(=O)N5CCC5)c4O)cc3c2N2CCC(N)CC2)c1 [2-88, 2-[4-(4-aminopiperidin-1-yl)-3-(3-fluoro-5-methylphenyl)quinolin-6-yl] 6-(azetidine-1-carbonyl)phenol] | 10 to 100 |
| CO[C@@H]1CN(c2c(-c3cc(F)cc(F)c3)cnc3ccc(-c4cccc(C#N)c4O)cc23)CC[C@H]1N (relative stereo) [2-3, 3-{4-[trans-4-amino-3-methoxypiperidin-1-yl]-3-(3,5-difluorophenyl)quinolin-6-yl}-2-hydroxybenzonitrile] | < 10 |
| N#Cc1cccc(-c2ccc3ncc(-c4cc(F)cc(F)c4)c(N4CCC(N)CC4)c3c2)c1OCCCC(=O)O [2-57, 4-{2-[4-(4-aminopiperidin-1-yl)-3-(3,5-difluorophenyl)quinolin-6-yl]-6-cyanophenoxy}butanoic acid] | 10 to 100 |
| Cc1cc(F)cc(-c2cnc3ccc(-c4cc(F)cc(C#N)c4O)cc3c2N2CC(CNC3CCOC3)C2)c1 (stereo not shown) [2-45, 5-fluoro-3-[3-(3-fluoro-5-methylphenyl)-4-(3-{[(oxolan-3-yl)amino]methyl}azetidin-1-yl)quinolin-6-yl]-2-hydroxybenzonitrile] | 10 to 100 |

Same assay, conditions: CHO-K1 cells stably expressing human SSTR2; NKH477-stimulated cAMP; read-out: EC50 (inhibition of cAMP activities via human SST2R)

| Compound | EC50 [nM] |
| --- | --- |
| NC(=O)c1cc(F)cc(-c2ccc3nnc(-c4cc(Cl)cc(Cl)c4)c(N4CCC(N)CC4)c3c2)c1 [1-30, 3-[4-(4-aminopiperidin-1-yl)-3-(3,5-dichlorophenyl)cinnolin-6-yl]-5-fluorobenzamide] | < 10 |
| COC(=O)Nc1c(F)cccc1-c1ccc2ncc(-c3cc(F)cc(OC)c3)c(N3CCC(N)CC3)c2c1 [2-173, methyl N-{2-[4-(4-aminopiperidin-1-yl)-3-(3-fluoro-5-methoxyphenyl)quinolin-6-yl]-6-fluorophenyl}carbamate] | < 10 |
| CCCNCC1CN(c2c(-c3cc(C)cc(F)c3)cnc3ccc(-c4c(F)ccc(F)c4O)cc23)C1 [2-46, 3,6-difluoro-2-[3-(3-fluoro-5-methylphenyl)-4-{3-[(propylamino)methyl]azetidin-1-yl}quinolin-6-yl]phenol] | < 10 |
| CCNCC1CN(c2c(-c3cc(C)cc(F)c3)cnc3ccc(-c4cc(F)cc(C(N)=O)c4)cc23)C1 [2-26, 3-(4-{3-[(ethylamino)methyl]azetidin-1-yl}-3-(3-fluoro-5-methylphenyl)quinolin-6-yl)-5-fluorobenzamide] | < 10 |
| Cc1cc(F)cc(-c2nnc3cc(Cl)c(-c4cc(F)cc(C(N)=O)c4)cc3c2N2CC[C@H](N)[C@H](F)C2)c1 (relative stereo) [1-6, 3-{4-[cis-4-amino-3-fluoropiperidin-1-yl]-7-chloro-3-(3-fluoro-5-methylphenyl)cinnolin-6-yl}-5-fluorobenzamide] | < 10 |
| NC1CCN(c2c(-c3cc(F)cc(F)c3)cnc3ccc(-c4cncc(Cl)c4C=NO)cc23)CC1 [2-192, 1-(6-{5-chloro-4-[(hydroxyimino)methyl]pyridin-3-yl}-3-(3,5-difluorophenyl)quinolin-4-yl)piperidin-4-amine] | < 10 |
| Cc1cc(F)cc(-c2cnc3ccc(-c4cc(F)cc(C#N)c4O)cc3c2N2CC(CNCCCO)C2)c1 [2-54, 5-fluoro-3-[3-(3-fluoro-5-methylphenyl)-4-(3-{[(3-hydroxypropyl)amino]methyl}azetidin-1-yl)quinolin-6-yl]-2-hydroxybenzonitrile] | < 10 |
| Cc1cc(F)cc(-c2cnc3ccc(-c4cc(F)cc(C#N)c4O)cc3c2N2CCC(N)CC2)c1 [2-16, 3-[4-(4-aminopiperidin-1-yl)-3-(3-fluoro-5-methylphenyl)quinolin-6-yl]-5-fluoro-2-hydroxybenzonitrile] | < 10 |
| COCCOc1c(C#N)cc(F)cc1-c1ccc2ncc(-c3cc(F)cc(F)c3)c(N3CC[C@H](N)[C@H](O)C3)c2c1 (relative stereo) [2-232, cis-3-{4-[4-amino-3-hydroxypiperidin-1-yl]-3-(3,5-difluorophenyl)quinolin-6-yl}-5-fluoro-2-(2-methoxyethoxy)benzonitrile] | < 10 |
